Legend:
[1] = 101.33 kPa, Liquid; for speed of sound: Linear variable-path acoustic interferometer
[2] = refractive index (Na D-line) (dimensionless); conditions: 101.33 kPa, Liquid, Standard Abbe refractometry
[3] = xn = mol fraction of the nth substance listed; conditions: 303.15 K, 101.3 kPa, Liquid; for speed of sound: Linear variable-path acoustic interferometer
[4] = refractive index (Na D-line) (dimensionless); xn = mol fraction of the nth substance listed; conditions: 303.15 K, 101.3 kPa, Liquid, Standard Abbe refractometry

ClC(Cl)C(Cl)Cl [1,1,2,2-tetrachloroethane]
303.15 K
Conditions	mass density [kg/m3]	refractive index	speed of sound [m/s]	viscosity [mPa·s]
[1]	1578.6	–	1135	1.457
[2]	–	1.4881	–	–

ClC(Cl)C(Cl)Cl [1,1,2,2-tetrachloroethane] + C1CCOC1
Conditions	mass density, [3] [kg/m3]	refractive index, [4]	speed of sound, [3] [m/s]	viscosity, [3] [mPa·s]
x2 = 0.1023	1523.21	1.483	1138	1.389
x2 = 0.2128	1460.02	1.476	1143	1.307
x2 = 0.3093	1401.59	1.4701	1149	1.227
x2 = 0.4056	1340.18	1.4639	1157	1.136
x2 = 0.5093	1270.31	1.4556	1168	1.029
x2 = 0.6032	1203.28	1.4472	1180	0.9116
x2 = 0.7046	1126.91	1.4368	1195	0.786
x2 = 0.8008	1050.12	1.4268	1212	0.6647
x2 = 0.8973	968.58	1.416	1231	0.5519

CCCCCCBr [1-bromohexane]
Conditions	mass density, [1] [kg/m3]	refractive index, [2]	speed of sound, [1] [m/s]	viscosity, [1] [mPa·s]
298.15 K	1169.62	1.4464	–	–
303.15 K	1162.67	1.4441	1075	0.903

CCCCCCBr [1-bromohexane] + C1CCOC1
Conditions	mass density, [3] [kg/m3]	refractive index, [4]	speed of sound, [3] [m/s]	viscosity, [3] [mPa·s]
x2 = 0.0976	1146.32	1.442	1087	0.8602
x2 = 0.3008	1107.3	1.4368	1119	0.7753
x2 = 0.4975	1061.2	1.4307	1154	0.6995
x2 = 0.696	1002.92	1.4223	1194	0.6258
x2 = 0.9	924.62	1.4105	1235	0.5054

CCCCCCCl [1-chlorohexane]
Conditions	mass density, [1] [kg/m3]	refractive index, [2]	speed of sound, [1] [m/s]	viscosity, [1] [mPa·s]
298.15 K	873.47	1.4197	–	–
303.15 K	868.78	1.4168	1184	0.6544

CCCCCCCl [1-chlorohexane] + C1CCOC1
Conditions	mass density, [3] [kg/m3]	refractive index, [4]	speed of sound, [3] [m/s]	viscosity, [3] [mPa·s]
x2 = 0.1039	869.11	1.4161	1195	0.6407
x2 = 0.305	870.03	1.4142	1216	0.6046
x2 = 0.5025	871.36	1.4122	1233	0.5698
x2 = 0.7336	873.79	1.4088	1247	0.5114
x2 = 0.9013	875.66	1.4053	1252	0.4711

CCCCOC(C)=O [butyl ethanoate]
303.15 K
Conditions	mass density [kg/m3]	refractive index	speed of sound [m/s]	viscosity [mPa·s]
[1]	870.8	–	1172	0.6453
[2]	–	1.3896	–	–

CCCCOC(C)=O [butyl ethanoate] + C1CCOC1
Conditions	mass density, [3] [kg/m3]	refractive index, [4]	speed of sound, [3] [m/s]	viscosity, [3] [mPa·s]
x2 = 0.1033	871.17	1.3911	1177	0.6261
x2 = 0.1989	871.58	1.3924	1182	0.6085
x2 = 0.3041	872.04	1.3941	1188	0.5892
x2 = 0.3995	872.51	1.3954	1194	0.5762
x2 = 0.4967	873.01	1.397	1201	0.5573
x2 = 0.6013	873.59	1.3979	1210	0.5346
x2 = 0.6979	874.18	1.3991	1219	0.5107
x2 = 0.7978	874.96	1.4005	1229	0.4893
x2 = 0.8999	875.79	1.4018	1241	0.4644

CCOC(C)=O [ethyl acetate]
303.15 K
Conditions	mass density [kg/m3]	refractive index	speed of sound [m/s]	viscosity [mPa·s]
[1]	888.55	–	1117	0.4043
[2]	–	1.3664	–	–

COC(C)=O [methyl ethanoate]
303.15 K
Conditions	mass density [kg/m3]	refractive index	speed of sound [m/s]	viscosity [mPa·s]
[1]	920.83	–	1136	0.343
[2]	–	1.3567	–	–

COC(C)=O [methyl ethanoate] + C1CCOC1
Conditions	mass density, [3] [kg/m3]	refractive index, [4]	speed of sound, [3] [m/s]	viscosity, [3] [mPa·s]
x2 = 0.1028	915.9	1.3649	1151	0.3512
x2 = 0.3022	906.64	1.3748	1178	0.3672
x2 = 0.5035	897.56	1.3847	1204	0.3841
x2 = 0.693	889.35	1.3927	1226	0.4035
x2 = 0.8918	881.07	1.4008	1246	0.4251

CCCCCOC(C)=O [pentyl ethanoate]
303.15 K
Conditions	mass density [kg/m3]	refractive index	speed of sound [m/s]	viscosity [mPa·s]
[1]	867.2	–	1197	0.7573
[2]	–	1.3961	–	–

CCCCCOC(C)=O [pentyl ethanoate] + C1CCOC1
Conditions	mass density, [3] [kg/m3]	refractive index, [4]	speed of sound, [3] [m/s]	viscosity, [3] [mPa·s]
x2 = 0.1067	867.69	1.3967	1198	0.7426
x2 = 0.298	868.75	1.3978	1203	0.7005
x2 = 0.4997	870.25	1.3992	1212	0.6373
x2 = 0.6997	872.25	1.4005	1224	0.5686
x2 = 0.9027	875	1.4021	1242	0.4829

ClC(Cl)(Cl)Cl [tetrachloromethane]
303.15 K
Conditions	mass density [kg/m3]	refractive index	speed of sound [m/s]	viscosity [mPa·s]
[1]	1574.82	–	905	0.8441
[2]	–	1.4555	–	–

ClC(Cl)(Cl)Cl [tetrachloromethane] + C1CCOC1
Conditions	mass density, [3] [kg/m3]	refractive index, [4]	speed of sound, [3] [m/s]	viscosity, [3] [mPa·s]
x2 = 0.1068	1513.72	1.4519	932	0.8152
x2 = 0.2017	1457.18	1.4486	955	0.788
x2 = 0.3004	1395.97	1.4451	982	0.758
x2 = 0.396	1334.07	1.4409	1008	0.721
x2 = 0.503	1261.58	1.4357	1042	0.6782
x2 = 0.6	1192.83	1.4304	1074	0.6359
x2 = 0.6923	1124.71	1.4247	1109	0.5916
x2 = 0.7949	1045.62	1.4182	1152	0.5453
x2 = 0.8889	969.98	1.4116	1196	0.4962

C1CCOC1 [tetrahydrofuran]
303.15 K
Conditions	mass density [kg/m3]	refractive index	speed of sound [m/s]	viscosity [mPa·s]
[1]	876.7	–	1255	0.4383
[2]	–	1.4028	–	–

C1CCOC1 [tetrahydrofuran] + CCOC(C)=O
Conditions	mass density, [3] [kg/m3]	refractive index, [4]	speed of sound, [3] [m/s]	viscosity, [3] [mPa·s]
x1 = 0.0995	887.39	1.3707	1129	0.4078
x1 = 0.2035	886.11	1.375	1141	0.4082
x1 = 0.3016	884.98	1.3785	1153	0.4085
x1 = 0.3923	883.95	1.3821	1165	0.4091
x1 = 0.4868	882.82	1.3858	1177	0.4111
x1 = 0.5955	881.45	1.3892	1192	0.4147
x1 = 0.6973	880.21	1.3921	1206	0.4184
x1 = 0.812	878.89	1.3964	1224	0.4236
x1 = 0.9	877.84	1.3995	1238	0.4287

ClC(Cl)Cl [trichloromethane]
303.15 K
Conditions	mass density [kg/m3]	refractive index	speed of sound [m/s]	viscosity [mPa·s]
[1]	1470.59	–	967	0.51
[2]	–	1.441	–	–

ClC(Cl)Cl [trichloromethane] + C1CCOC1
Conditions	mass density, [3] [kg/m3]	refractive index, [4]	speed of sound, [3] [m/s]	viscosity, [3] [mPa·s]
x2 = 0.1023	1410.89	1.438	986	0.5307
x2 = 0.2085	1349.01	1.4346	1006	0.5467
x2 = 0.3045	1292.84	1.4315	1024	0.5566
x2 = 0.4278	1220.11	1.4273	1051	0.559
x2 = 0.5003	1176.98	1.4251	1070	0.558
x2 = 0.6047	1114.67	1.421	1102	0.5445
x2 = 0.6976	1058.96	1.4168	1133	0.5245
x2 = 0.8077	992.59	1.4121	1174	0.4955
x2 = 0.8921	941.69	1.4079	1208	0.4676

Reference: the NIST ThermoML archive (doi:10.1016/j.tca.2004.08.001)
